Activity calls are given as the source filed them. No cut-off for these calls is given here.

The subject of the first data set is Nucleic Acid. The data set is described as follows: Binding affinity to AMP in citric acid buffer at pH 5 by fluorescence titration assay relative to control. Type of data set: nucleic-acid assay.
Conditions: not given
As to `Cc1c2cc(NC(=O)NCCNC(=O)Nc3ccc4c(c3)c(C)[n+](C)c3ccccc43)ccc2c2ccccc2[n+]1C.O=S(=O)([O-])O.O=S(=O)([O-])O`, the RFU was -6.9.

A further data set has as its system Calf thymus DNA. The data set can be described thus: Binding affinity to calf thymus DNA assessed as change in melting temperature at compound to DNA molar ratio of 0.3 at pH 7 by thermal denaturation assay. The format is nucleic-acid assay. Particulars: Bos taurus.
As for `Cc1c2cc(NC(=O)NCCNC(=O)Nc3ccc4c(c3)c(C)[n+](C)c3ccccc43)ccc2c2ccccc2[n+]1C.O=S(=O)([O-])O.O=S(=O)([O-])O`, the ΔTm was determined as 3.8 °C.

Another data set has as its system Calf thymus DNA. The data set is described as follows: Binding affinity to calf thymus DNA in sodium cacodylate buffer at pH 7 by fluorescence titration assay. Type of data set: nucleic-acid assay. Particulars: Bos taurus.
Turning to `Cc1c2cc(NC(=O)NCCNC(=O)Nc3ccc4c(c3)c(C)[n+](C)c3ccccc43)ccc2c2ccccc2[n+]1C.O=S(=O)([O-])O.O=S(=O)([O-])O`, the log Ks stood at 6.1.

The subject of a further data set is Nucleic Acid. The data set is described as follows: Binding affinity to GMP in sodium cacodylate buffer at pH 7 by fluorescence titration assay relative to control. Type of data set: nucleic-acid assay.
Conditions: not given
The molecule `Cc1c2cc(NC(=O)NCCNC(=O)Nc3ccc4c(c3)c(C)[n+](C)c3ccccc43)ccc2c2ccccc2[n+]1C.O=S(=O)([O-])O.O=S(=O)([O-])O` returned an RFU of 34.2.

The test system of the next data set is Nucleic Acid. The data set can be described thus: Binding affinity to poly A-poly U RNA assessed as biphasic transitions of change in melting temperature at compound to DNA molar ratio of 0.2 at pH 5 by thermal denaturation assay.
Conditions: not given
The format is nucleic-acid assay.
On to `Cc1c2cc(NC(=O)NCCNC(=O)Nc3ccc4c(c3)c(C)[n+](C)c3ccccc43)ccc2c2ccccc2[n+]1C.O=S(=O)([O-])O.O=S(=O)([O-])O`, for which the shift in melting temperature (ΔTm) is -0.1 °C.

Another data set concerns Calf thymus DNA. The data set is described as follows: Binding affinity to calf thymus DNA assessed as change in melting temperature at compound to DNA molar ratio of 0.2 at pH 7 by thermal denaturation assay. Type of data set: nucleic-acid assay. The note with it: Bos taurus.
As to `Cc1c2cc(NC(=O)NCCNC(=O)Nc3ccc4c(c3)c(C)[n+](C)c3ccccc43)ccc2c2ccccc2[n+]1C.O=S(=O)([O-])O.O=S(=O)([O-])O`, the ΔTm turned out to be 2.4 °C.

The next data set has as its system Caco-2. The data set is described as follows: Cytotoxicity against human Caco-2 cells at 0.1 to 100 uM after 72 hrs by MTT assay. Type of data set: functional, cell-based.
Conditions: not given
`Cc1c2cc(NC(=O)NCCNC(=O)Nc3ccc4c(c3)c(C)[n+](C)c3ccccc43)ccc2c2ccccc2[n+]1C.O=S(=O)([O-])O.O=S(=O)([O-])O`: the outcome was Active.

Another data set concerns Nucleic Acid. The data set can be described thus: Binding affinity to poly dA-poly dT RNA in sodium cacodylate buffer at pH 7 by fluorescence titration assay. The format is nucleic-acid assay.
Conditions: not given
As to `Cc1c2cc(NC(=O)NCCNC(=O)Nc3ccc4c(c3)c(C)[n+](C)c3ccccc43)ccc2c2ccccc2[n+]1C.O=S(=O)([O-])O.O=S(=O)([O-])O`, the log Ks is 5.3.

Another data set concerns Nucleic Acid. The data set can be described thus: Binding affinity to poly dA-poly dT RNA in sodium cacodylate buffer at pH 7 by UV-v titration assay. Type of data set: nucleic-acid assay.
Conditions: not given
With `Cc1c2cc(NC(=O)NCCNC(=O)Nc3ccc4c(c3)c(C)[n+](C)c3ccccc43)ccc2c2ccccc2[n+]1C.O=S(=O)([O-])O.O=S(=O)([O-])O`, the log Ks is 5.

Another data set relates to Nucleic Acid. The data set is described as follows: Binding affinity to […] assessed as change in melting temperature at compound to DNA molar ratio of 0.2 at pH 7 by thermal denaturation assay. The format is nucleic-acid assay.
Conditions: not given
Regarding `Cc1c2cc(NC(=O)NCCNC(=O)Nc3ccc4c(c3)c(C)[n+](C)c3ccccc43)ccc2c2ccccc2[n+]1C.O=S(=O)([O-])O.O=S(=O)([O-])O`, the ΔTm was 5.3 °C.

Another data set relates to MIA PaCa-2. The data set can be described thus: Cytotoxicity against human MIAPaCa2 cells at 100 uM after 72 hrs by MTT assay. Type of data set: functional. Particulars: MIA PaCa-2, 72 h.
For the molecule `Cc1c2cc(NC(=O)NCCNC(=O)Nc3ccc4c(c3)c(C)[n+](C)c3ccccc43)ccc2c2ccccc2[n+]1C.O=S(=O)([O-])O.O=S(=O)([O-])O`, the inhibition at 100 µM is 35%.

The test system of a further data set is MIA PaCa-2. The data set is described as follows: Cytotoxicity against human MIAPaCa2 cells at 0.1 to 100 uM after 72 hrs by MTT assay. The format is functional, cell-based.
Conditions: not given
Consider `Cc1c2cc(NC(=O)NCCNC(=O)Nc3ccc4c(c3)c(C)[n+](C)c3ccccc43)ccc2c2ccccc2[n+]1C.O=S(=O)([O-])O.O=S(=O)([O-])O`, for which the result was Active.

Another data set relates to Nucleic Acid. The data set is described as follows: Binding affinity to poly dA-poly dT RNA in citric acid buffer at pH 5 by fluorescence titration assay relative to control. Type of data set: nucleic-acid assay.
Conditions: not given
The molecule `Cc1c2cc(NC(=O)NCCNC(=O)Nc3ccc4c(c3)c(C)[n+](C)c3ccccc43)ccc2c2ccccc2[n+]1C.O=S(=O)([O-])O.O=S(=O)([O-])O` displayed an RFU of 56.

The next data set concerns Nucleic Acid. The data set is described as follows: Binding affinity to […] assessed as melting temperature at compound to DNA molar ratio of 0.3 at pH 7 by thermal denaturation assay. The format is nucleic-acid assay.
Conditions: not given
`Cc1c2cc(NC(=O)NCCNC(=O)Nc3ccc4c(c3)c(C)[n+](C)c3ccccc43)ccc2c2ccccc2[n+]1C.O=S(=O)([O-])O.O=S(=O)([O-])O`: the Tm was 71 °C.

A further data set relates to Nucleic Acid. The data set is described as follows: Binding affinity to UMP in sodium cacodylate buffer at pH 7 by fluorescence titration assay relative to control. The format is nucleic-acid assay.
Conditions: not given
`Cc1c2cc(NC(=O)NCCNC(=O)Nc3ccc4c(c3)c(C)[n+](C)c3ccccc43)ccc2c2ccccc2[n+]1C.O=S(=O)([O-])O.O=S(=O)([O-])O` registered an RFU of 62.5.

Another data set concerns HeLa. The data set can be described thus: Cytotoxicity against human HeLa cells at 0.1 to 100 uM after 72 hrs by MTT assay. The format is functional, cell-based.
Conditions: not given
`Cc1c2cc(NC(=O)NCCNC(=O)Nc3ccc4c(c3)c(C)[n+](C)c3ccccc43)ccc2c2ccccc2[n+]1C.O=S(=O)([O-])O.O=S(=O)([O-])O`: the outcome was Active.

In another data set the test system is Nucleic Acid. The data set is described as follows: Binding affinity to […] assessed as melting temperature at compound to DNA molar ratio of 0.2 at pH 7 by thermal denaturation assay. The format is nucleic-acid assay.
Conditions: not given
`Cc1c2cc(NC(=O)NCCNC(=O)Nc3ccc4c(c3)c(C)[n+](C)c3ccccc43)ccc2c2ccccc2[n+]1C.O=S(=O)([O-])O.O=S(=O)([O-])O`: the Tm is 70.2 °C.

The next data set has as its system Nucleic Acid. The data set is described as follows: Binding affinity to GMP in citric acid buffer at pH 5 by fluorescence titration assay relative to control. Type of data set: nucleic-acid assay.
Conditions: not given
The molecule `Cc1c2cc(NC(=O)NCCNC(=O)Nc3ccc4c(c3)c(C)[n+](C)c3ccccc43)ccc2c2ccccc2[n+]1C.O=S(=O)([O-])O.O=S(=O)([O-])O` came in with an RFU of 23.5.

The next data set concerns Nucleic Acid. The data set can be described thus: Binding affinity to poly A-poly U RNA in citric acid buffer at pH 5 by fluorescence titration assay relative to control. Type of data set: nucleic-acid assay.
Conditions: not given
`Cc1c2cc(NC(=O)NCCNC(=O)Nc3ccc4c(c3)c(C)[n+](C)c3ccccc43)ccc2c2ccccc2[n+]1C.O=S(=O)([O-])O.O=S(=O)([O-])O` displayed an RFU of 2.3.

Another data set has as its system Calf thymus DNA. The data set is described as follows: Binding affinity to calf thymus DNA assessed as melting temperature at compound to DNA molar ratio of 0.3 at pH 7 by thermal denaturation assay. Type of data set: nucleic-acid assay. Particulars: Bos taurus.
On to `Cc1c2cc(NC(=O)NCCNC(=O)Nc3ccc4c(c3)c(C)[n+](C)c3ccccc43)ccc2c2ccccc2[n+]1C.O=S(=O)([O-])O.O=S(=O)([O-])O`, for which the Tm came out at 83.1 °C.

Test system in a further data set: not listed separately
The data set is described as follows: Solubility of the compound in water. The format is physicochemical. Particulars: buffer.
As to `Cc1c2cc(NC(=O)NCCNC(=O)Nc3ccc4c(c3)c(C)[n+](C)c3ccccc43)ccc2c2ccccc2[n+]1C.O=S(=O)([O-])O.O=S(=O)([O-])O`, the concentration in solution (solubility) was 1.46 mM.

Another data set deals with Calf thymus DNA. The data set can be described thus: Binding affinity to calf thymus DNA assessed as change in melting temperature at compound to DNA molar ratio of 0.3 at pH 5 by thermal denaturation assay. Particulars: Bos taurus. The format is nucleic-acid assay.
Turning to `Cc1c2cc(NC(=O)NCCNC(=O)Nc3ccc4c(c3)c(C)[n+](C)c3ccccc43)ccc2c2ccccc2[n+]1C.O=S(=O)([O-])O.O=S(=O)([O-])O`, the shift in melting temperature (ΔTm) was determined as 15 °C.

Another data set deals with Nucleic Acid. The data set can be described thus: Binding affinity to poly A-poly U RNA assessed as melting temperature at compound to DNA molar ratio of 0.3 at pH 7 by thermal denaturation assay. The format is nucleic-acid assay.
Conditions: not given
For the molecule `Cc1c2cc(NC(=O)NCCNC(=O)Nc3ccc4c(c3)c(C)[n+](C)c3ccccc43)ccc2c2ccccc2[n+]1C.O=S(=O)([O-])O.O=S(=O)([O-])O`, the Tm is 51.6 °C.

Values taken from ChEMBL document CHEMBL1208667, “Permanent positive charge strongly influences DNA/RNA binding and antiproliferative activity of urea-phenanthridinium conjugates” (Eur J Med Chem, 2010).
